Assay results published in article PMC5218480 (PLoS ONE, 2017).

Tested on: MV-4-11 cells
Assay: Gene expression microarray analysis (Affymetrix PrimeView) and GSEA
Format: cell-based, human
Set-up: RFU PODN (11730768_x_at) / Fold change /veh PODN (11730768_x_at) / RFU LINC00158 (11744669_a_at) / Fold change /veh LINC00158 (11744669_a_at) / RFU DUSP10 (11751237_a_at) / Fold change /veh DUSP10 (11751237_a_at) / RFU ID3 (11757404_x_at) / Fold change /veh ID3 (11757404_x_at) / RFU PLEKHG5 (11737974_s_at) / Fold change /veh PLEKHG5 (11737974_s_at) / RFU LRRC4B (11730491_at) / Fold change /veh LRRC4B (11730491_at) / RFU GIMAP4 (11747438_a_at) / Fold change /veh GIMAP4 (11747438_a_at) / RFU KRT8 (11758183_x_at) / Fold change /veh KRT8 (11758183_x_at) / RFU CNN1 (11734310_a_at) / Fold change /veh CNN1 (11734310_a_at) / RFU VPS37D (11726825_at) / Fold change /veh VPS37D (11726825_at) / RFU C10orf10 (11716522_x_at) / Fold change /veh C10orf10 (11716522_x_at) / RFU KIR2DL2 /// KIR2DL4 /// KIR2DL5A /// KIR2DL5B /// KIR2DS1 /// KIR2DS2 /// KIR2DS3 /// KIR2DS4 /// KIR3DL3 /// KIR3DL3 /// KIR3DS1 (11738374_at) / Fold change /veh KIR2DL2 /// KIR2DL4 /// KIR2DL5A /// KIR2DL5B /// KIR2DS1 /// KIR2DS2 /// KIR2DS3 /// KIR2DS4 /// KIR3DL3 /// KIR3DL3 /// KIR3DS1 (11738374_at) / RFU C1QL1 (11718748_at) / Fold change /veh C1QL1 (11718748_at) / RFU TMPRSS4 (11747572_a_at) / Fold change /veh TMPRSS4 (11747572_a_at) / RFU HAMP (11756126_x_at) / Fold change /veh HAMP (11756126_x_at) / RFU RNFT2 (11725882_a_at) / Fold change /veh RNFT2 (11725882_a_at) / RFU NR4A2 (11747474_a_at) / Fold change /veh NR4A2 (11747474_a_at) / RFU ABCC12 (11746883_a_at) / Fold change /veh ABCC12 (11746883_a_at) / RFU TMEM136 (11760407_x_at) / Fold change /veh TMEM136 (11760407_x_at) / RFU CLDN22 /// WWC2 (11732394_at) / Fold change /veh CLDN22 /// WWC2 (11732394_at) / RFU HLA-DPB1 (11760878_x_at) / Fold change /veh HLA-DPB1 (11760878_x_at) / RFU SPINT1 (11716480_a_at) / Fold change /veh SPINT1 (11716480_a_at) / RFU GAP43 (11754022_s_at) / Fold change /veh GAP43 (11754022_s_at) / RFU A4GNT (11735810_at) / Fold change /veh A4GNT (11735810_at) / RFU PRB3 (11715151_x_at) / Fold change /veh PRB3 (11715151_x_at) / RFU TUBB4B (11761932_at) / Fold change /veh TUBB4B (11761932_at) / RFU CAPN14 (11732068_a_at) / Fold change /veh CAPN14 (11732068_a_at) / RFU TMCC2 (11721928_a_at) / Fold change /veh TMCC2 (11721928_a_at) / RFU IRGQ (11745062_a_at) / Fold change /veh IRGQ (11745062_a_at) / RFU FAM174B (11720279_a_at) / Fold change /veh FAM174B (11720279_a_at) / RFU TMPRSS4 (11748680_a_at) / Fold change /veh TMPRSS4 (11748680_a_at) / RFU FAM212B (11763350_a_at) / Fold change /veh FAM212B (11763350_a_at) / RFU PLEKHG5 (11743358_a_at) / Fold change /veh PLEKHG5 (11743358_a_at) / RFU ZSCAN30 (11745921_a_at) / Fold change /veh ZSCAN30 (11745921_a_at) / RFU CMKLR1 (11741424_a_at) / Fold change /veh CMKLR1 (11741424_a_at) / RFU LOC101060620 /// MAPK8IP1 (11723275_at) / Fold change /veh LOC101060620 /// MAPK8IP1 (11723275_at) / RFU SPTSSB (11747773_x_at) / Fold change /veh SPTSSB (11747773_x_at) / RFU PRSS12 (11739890_at) / Fold change /veh PRSS12 (11739890_at) / RFU BIN1 (11741810_x_at) / Fold change /veh BIN1 (11741810_x_at) / RFU WNT11 (11732464_a_at) / Fold change /veh WNT11 (11732464_a_at) / RFU C10orf10 (11716521_a_at) / Fold change /veh C10orf10 (11716521_a_at) / RFU C5orf56 (11738089_at) / Fold change /veh C5orf56 (11738089_at) / RFU CYB561 (11721691_x_at) / Fold change /veh CYB561 (11721691_x_at) / RFU ANKRD19P (11752326_a_at) / Fold change /veh ANKRD19P (11752326_a_at) / RFU OR2T12 /// OR2T33 /// OR2T8 (11738714_s_at) / Fold change /veh OR2T12 /// OR2T33 /// OR2T8 (11738714_s_at) / RFU VCAN (11748164_a_at) / Fold change /veh VCAN (11748164_a_at) / RFU JSRP1 (11732532_at) / Fold change /veh JSRP1 (11732532_at) / RFU KRTAP10-11 (11738290_x_at) / Fold change /veh KRTAP10-11 (11738290_x_at) / RFU MYO3A (11730013_a_at) / Fold change /veh MYO3A (11730013_a_at) / RFU EBF3 (11725865_a_at) / Fold change /veh EBF3 (11725865_a_at) / RFU CAMK2N1 (11719241_x_at) / Fold change /veh CAMK2N1 (11719241_x_at) / RFU C5orf56 (11738088_a_at) / Fold change /veh C5orf56 (11738088_a_at) / RFU OLFML3 (11715873_a_at) / Fold change /veh OLFML3 (11715873_a_at) / RFU LOC100653217 /// NTM (11731650_a_at) / Fold change /veh LOC100653217 /// NTM (11731650_a_at) / RFU MAPK11 (11762145_a_at) / Fold change /veh MAPK11 (11762145_a_at) / RFU FIZ1 (11724087_x_at) / Fold change /veh FIZ1 (11724087_x_at) / RFU OASL (11726364_x_at) / Fold change /veh OASL (11726364_x_at) / RFU SOX15 (11748057_x_at) / Fold change /veh SOX15 (11748057_x_at) / RFU CD79A (11719716_a_at) / Fold change /veh CD79A (11719716_a_at) / RFU HIST1H1D (11736915_at) / Fold change /veh HIST1H1D (11736915_at) / RFU CASKIN2 (11723855_a_at) / Fold change /veh CASKIN2 (11723855_a_at) / RFU LOC730098 (11760151_x_at) / Fold change /veh LOC730098 (11760151_x_at) / RFU OR4N2 (11742367_at) / Fold change /veh OR4N2 (11742367_at) / RFU PRRT2 (11749266_a_at) / Fold change /veh PRRT2 (11749266_a_at) / RFU SNX32 (11753110_a_at) / Fold change /veh SNX32 (11753110_a_at) / RFU CDHR5 (11726645_a_at) / Fold change /veh CDHR5 (11726645_a_at) / RFU RCAN1 (11760418_a_at) / Fold change /veh RCAN1 (11760418_a_at) / RFU FAM167A (11723789_a_at) / Fold change /veh FAM167A (11723789_a_at) / RFU FAM26E (11764081_at) / Fold change /veh FAM26E (11764081_at) / RFU ISYNA1 (11749810_s_at) / Fold change /veh ISYNA1 (11749810_s_at) / RFU ACY1 (11761880_at) / Fold change /veh ACY1 (11761880_at) / RFU 11764098_at / Fold change /veh 11764098_at / RFU SAMD14 (11745864_x_at) / Fold change /veh SAMD14 (11745864_x_at) / RFU NPB (11741838_a_at) / Fold change /veh NPB (11741838_a_at) / RFU TMPRSS6 (11731388_a_at) / Fold change /veh TMPRSS6 (11731388_a_at) / RFU KRTAP10-2 (11738614_at) / Fold change /veh KRTAP10-2 (11738614_at) / RFU ARHGAP8 /// PRR5-ARHGAP8 (11727945_x_at) / Fold change /veh ARHGAP8 /// PRR5-ARHGAP8 (11727945_x_at) / RFU KRTAP5-7 /// NADSYN1 (11734609_at) / Fold change /veh KRTAP5-7 /// NADSYN1 (11734609_at) / RFU RASL12 (11751679_a_at) / Fold change /veh RASL12 (11751679_a_at) / RFU CDKN2B (11736163_a_at) / Fold change /veh CDKN2B (11736163_a_at) / RFU PRF1 (11729649_at) / Fold change /veh PRF1 (11729649_at) / RFU, ZNF638 /// ZNF638-IT1 / Fold change vs veh, ZNF638 /// ZNF638-IT1 / RFU, PANK3 / Fold change vs veh, PANK3 / RFU, SH3YL1 / Fold change vs veh, SH3YL1 / RFU, ZEB2 / Fold change vs veh, ZEB2 / RFU, NRIP1 / Fold change vs veh, NRIP1 / RFU, PTTG1IP / Fold change vs veh, PTTG1IP / RFU, CAPN2 / Fold change vs veh, CAPN2 / RFU, MED14 / Fold change vs veh, MED14 / RFU, SNORA58 / Fold change vs veh, SNORA58 / RFU, C1orf63 / Fold change vs veh, C1orf63 / RFU, LRRFIP1 / Fold change vs veh, LRRFIP1 / RFU, NDUFAF7 / Fold change vs veh, NDUFAF7 / RFU, SLC12A2 / Fold change vs veh, SLC12A2 / RFU, IBTK / Fold change vs veh, IBTK / RFU, ESF1 / Fold change vs veh, ESF1 / Fold change vs veh, TMEM50B / RFU, TAOK1 / Fold change vs veh, TAOK1 / RFU, ACBD3 / Fold change vs veh, ACBD3 / RFU, TMA16 / Fold change vs veh, TMA16 / RFU, RWDD3 / Fold change vs veh, RWDD3 / RFU, BCAT1 / Fold change vs veh, BCAT1 / RFU, EDEM3 / Fold change vs veh, EDEM3 / RFU, TMEM33 / Fold change vs veh, TMEM33 / RFU, WDR75 / Fold change vs veh, WDR75 / RFU, AHCTF1 / Fold change vs veh, AHCTF1 / RFU, TFRC / Fold change vs veh, TFRC / RFU, ZDHHC17 / Fold change vs veh, ZDHHC17 / RFU, NOM1 / Fold change vs veh, NOM1 / RFU, ARL8B / Fold change vs veh, ARL8B / RFU, ZBTB11 / Fold change vs veh, ZBTB11 / RFU, TAMM41 / Fold change vs veh, TAMM41 / RFU, KIAA1704 /// LOC100996395 / Fold change vs veh, KIAA1704 /// LOC100996395 / RFU, ING1 / Fold change vs veh, ING1 / RFU, TRMT61B / Fold change vs veh, TRMT61B / RFU, FUBP3 / Fold change vs veh, FUBP3 / RFU, TP53 / Fold change vs veh, TP53 / RFU, TNKS2 / Fold change vs veh, TNKS2 / RFU, ZFP14 / Fold change vs veh, ZFP14 / RFU, ACTR2 / Fold change vs veh, ACTR2 / RFU, PPP3R1 / Fold change vs veh, PPP3R1 / RFU, PIK3R1 / Fold change vs veh, PIK3R1 / RFU, HNRNPA1 / Fold change vs veh, HNRNPA1 / RFU, RNF170 / Fold change vs veh, RNF170 / RFU, ZNF28 / Fold change vs veh, ZNF28 / RFU, RNGTT / Fold change vs veh, RNGTT / RFU, OGT / Fold change vs veh, OGT / RFU, BRD1 / Fold change vs veh, BRD1 / RFU, MARS / Fold change vs veh, MARS / RFU, ZNF655 / Fold change vs veh, ZNF655 / RFU, FAHD1 / Fold change vs veh, FAHD1 / RFU, BDP1 / Fold change vs veh, BDP1 / RFU, LRRCC1 / Fold change vs veh, LRRCC1 / RFU, ARID1A / Fold change vs veh, ARID1A / RFU, ZNF146 / Fold change vs veh, ZNF146 / RFU, ZNF330 / Fold change vs veh, ZNF330 / RFU, GPN3 / Fold change vs veh, GPN3 / RFU, C9orf123 / Fold change vs veh, C9orf123 / RFU, N4BP2L2 / Fold change vs veh, N4BP2L2 / RFU, ARFIP1 / Fold change vs veh, ARFIP1 / RFU, FAM179B / Fold change vs veh, FAM179B / RFU, BCL10 / Fold change vs veh, BCL10 / RFU, UHRF1BP1L / Fold change vs veh, UHRF1BP1L / RFU, BET1 / Fold change vs veh, BET1 / RFU, CNOT2 / Fold change vs veh, CNOT2 / RFU, ZNF268 / Fold change vs veh, ZNF268 / Fold change vs veh, ZNF507 / RFU, DGCR2 / Fold change vs veh, DGCR2 / RFU, WDSUB1 / Fold change vs veh, WDSUB1 / Fold change vs veh, HSP90B1 /// MIR3652 / RFU, ADSS / Fold change vs veh, ADSS / RFU, GK / Fold change vs veh, GK / RFU, ZNF148 / Fold change vs veh, ZNF148 / RFU, TAF9 / Fold change vs veh, TAF9 / RFU, SLC1A5 / Fold change vs veh, SLC1A5 / RFU, SLMO2 / Fold change vs veh, SLMO2 / RFU, ABCC4 / Fold change vs veh, ABCC4 / RFU, LOC101060439 /// RAP1B / Fold change vs veh, LOC101060439 /// RAP1B / RFU, RFX7 / Fold change vs veh, RFX7 / RFU, GTPBP10 / Fold change vs veh, GTPBP10 / RFU, CNEP1R1 / Fold change vs veh, CNEP1R1 / RFU, BIVM-ERCC5 /// ERCC5 / Fold change vs veh, BIVM-ERCC5 /// ERCC5 / RFU, ILF3 / Fold change vs veh, ILF3 / RFU 11762660_at / Fold change /veh 11762660_at / RFU VCAN (11757783_s_at) / Fold change /veh VCAN (11757783_s_at) / RFU DDX43 (11728927_at) / Fold change /veh DDX43 (11728927_at) / RFU KRT8 (11758188_x_at) / Fold change /veh KRT8 (11758188_x_at) / RFU NKD1 (11759106_at) / Fold change /veh NKD1 (11759106_at) / RFU SRD5A1 (11742802_a_at) / Fold change /veh SRD5A1 (11742802_a_at) / RFU TPSAB1 /// TPSB2 (11721975_s_at) / Fold change /veh TPSAB1 /// TPSB2 (11721975_s_at) / RFU GSTM3 (11746129_a_at) / Fold change /veh GSTM3 (11746129_a_at) / RFU IL23R (11737362_x_at) / Fold change /veh IL23R (11737362_x_at) / RFU TMEM51 (11727254_a_at) / Fold change /veh TMEM51 (11727254_a_at) / RFU PIWIL2 (11732686_x_at) / Fold change /veh PIWIL2 (11732686_x_at) / RFU ORM1 (11744905_x_at) / Fold change /veh ORM1 (11744905_x_at) / RFU CCDC152 (11743942_at) / Fold change /veh CCDC152 (11743942_at) / RFU ECM1 (11717891_a_at) / Fold change /veh ECM1 (11717891_a_at) / RFU IL23R (11748794_a_at) / Fold change /veh IL23R (11748794_a_at) / RFU TNFAIP8L3 (11732012_x_at) / Fold change /veh TNFAIP8L3 (11732012_x_at) / RFU MBOAT4 (11741988_at) / Fold change /veh MBOAT4 (11741988_at) / RFU 11764193_at / Fold change /veh 11764193_at / RFU TMEM53 (11763286_at) / Fold change /veh TMEM53 (11763286_at) / RFU MAGEB2 (11727129_at) / Fold change /veh MAGEB2 (11727129_at) / RFU TMEM200A (11744735_a_at) / Fold change /veh TMEM200A (11744735_a_at) / RFU CCDC152 (11751479_a_at) / Fold change /veh CCDC152 (11751479_a_at) / RFU FAM211A (11726209_a_at) / Fold change /veh FAM211A (11726209_a_at) / RFU RGS16 (11746705_a_at) / Fold change /veh RGS16 (11746705_a_at) / RFU VCAN (11755009_s_at) / Fold change /veh VCAN (11755009_s_at) / RFU RHOB (11743442_s_at) / Fold change /veh RHOB (11743442_s_at) / RFU RGS16 (11720943_a_at) / Fold change /veh RGS16 (11720943_a_at) / RFU RGS16 (11720944_at) / Fold change /veh RGS16 (11720944_at) / RFU, VPS4B / Fold change vs veh, VPS4B / RFU, CREB1 / Fold change vs veh, CREB1 / RFU, DNAJC13 / Fold change vs veh, DNAJC13 / RFU, GNAQ / Fold change vs veh, GNAQ / RFU, CDK5R1 / Fold change vs veh, CDK5R1 / RFU, ZRANB3 / Fold change vs veh, ZRANB3 / RFU, CUL4A / Fold change vs veh, CUL4A / RFU, CCNY / Fold change vs veh, CCNY / RFU, UFL1 / Fold change vs veh, UFL1 / RFU, COG3 / Fold change vs veh, COG3 / RFU, DIAPH2 / Fold change vs veh, DIAPH2 / RFU, SKA2 / Fold change vs veh, SKA2 / RFU, AFF3 / Fold change vs veh, AFF3 / RFU, LMF1 / Fold change vs veh, LMF1 / RFU, IPO11 / Fold change vs veh, IPO11 / RFU, DFFB / Fold change vs veh, DFFB / RFU, FOXP1 / Fold change vs veh, FOXP1 / RFU, CARD8 / Fold change vs veh, CARD8 / RFU, STRN3 / Fold change vs veh, STRN3 / RFU, ADK / Fold change vs veh, ADK / RFU, RASSF2 / Fold change vs veh, RASSF2 / RFU, WIPF1 / Fold change vs veh, WIPF1 / RFU, LARP1B / Fold change vs veh, LARP1B / RFU, RASA1 / Fold change vs veh, RASA1 / RFU, RB1 / Fold change vs veh, RB1 / RFU, PPFIA1 / Fold change vs veh, PPFIA1 / RFU, MAT2A / Fold change vs veh, MAT2A / RFU, CCT5 / Fold change vs veh, CCT5 / RFU, WDR92 / Fold change vs veh, WDR92 / RFU, CUX1 / Fold change vs veh, CUX1 / RFU, TTC7A / Fold change vs veh, TTC7A / RFU, TMEM135 / Fold change vs veh, TMEM135 / RFU, DEPTOR / Fold change vs veh, DEPTOR / RFU, CPM / Fold change vs veh, CPM / RFU, DNAJB6 / Fold change vs veh, DNAJB6 / RFU, CACNA2D3 / Fold change vs veh, CACNA2D3 / RFU, DTX4 / Fold change vs veh, DTX4 / RFU, TFCP2 / Fold change vs veh, TFCP2 / RFU, GMCL1 /// GMCL1P1 / Fold change vs veh, GMCL1 /// GMCL1P1 / RFU, AEBP2 / Fold change vs veh, AEBP2 / RFU, SNHG1 /// SNORD22 /// SNORD25 /// SNORD26 /// SNORD27 /// SNORD28 /// SNORD29 /// SNORD31 / Fold change vs veh, SNHG1 /// SNORD22 /// SNORD25 /// SNORD26 /// SNORD27 /// SNORD28 /// SNORD29 /// SNORD31 / Fold change (Aza/veh), C12orf56 (ProbeSet 11735607_a_at) / Fold change (ACY-1035/veh), C12orf56 (ProbeSet 11735607_a_at) / Fold change (Aza/veh), FGFR1OP (ProbeSet 11751329_s_at) / Fold change (ACY-1035/veh), FGFR1OP (ProbeSet 11751329_s_at) / Fold change (Aza/veh), VPS36 (ProbeSet 11739960_a_at) / Fold change (ACY-1035/veh), VPS36 (ProbeSet 11739960_a_at) / RFU SYPL1 (11715823_x_at) / Fold change /veh SYPL1 (11715823_x_at) / RFU IGFBP7 (11715501_s_at) / Fold change /veh IGFBP7 (11715501_s_at) / RFU REEP3 (11722064_at) / Fold change /veh REEP3 (11722064_at) / RFU IGLL1 (11728026_x_at) / Fold change /veh IGLL1 (11728026_x_at): dose or concentration left out as unconfirmed
Conditions: MV-4-11 cells, 48 hours

`Nc1ncn([C@@H]2O[C@H](CO)[C@@H](O)[C@H]2O)c(=O)n1` [azacitidine] was tested, and the “RFU VCAN (11757783_s_at)” value was 10.94 RFU.
